Data: ChEMBL document CHEMBL1201862, “PubChem BioAssay data set” (2004)
Active and inactive are the calls of the source.

Key:
[1] = target: T1, Heat shock factor protein 1 (Mus musculus, UniProt P38532); assay: HSF1 potentiators in luciferase reporter cells, confirmation, cell-based, NIH3T3, luminescence, dose retest (AID 435004); assay type: functional;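 note: stress induced by proteasome inhibitor MG132 added 30 min after compound; luciferase reporter driven by HSF1 response element in NIH3T3 cells; actives raise luminescence as potentiators of the MG132 stress response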
T1 sequence (P38532 whole entry): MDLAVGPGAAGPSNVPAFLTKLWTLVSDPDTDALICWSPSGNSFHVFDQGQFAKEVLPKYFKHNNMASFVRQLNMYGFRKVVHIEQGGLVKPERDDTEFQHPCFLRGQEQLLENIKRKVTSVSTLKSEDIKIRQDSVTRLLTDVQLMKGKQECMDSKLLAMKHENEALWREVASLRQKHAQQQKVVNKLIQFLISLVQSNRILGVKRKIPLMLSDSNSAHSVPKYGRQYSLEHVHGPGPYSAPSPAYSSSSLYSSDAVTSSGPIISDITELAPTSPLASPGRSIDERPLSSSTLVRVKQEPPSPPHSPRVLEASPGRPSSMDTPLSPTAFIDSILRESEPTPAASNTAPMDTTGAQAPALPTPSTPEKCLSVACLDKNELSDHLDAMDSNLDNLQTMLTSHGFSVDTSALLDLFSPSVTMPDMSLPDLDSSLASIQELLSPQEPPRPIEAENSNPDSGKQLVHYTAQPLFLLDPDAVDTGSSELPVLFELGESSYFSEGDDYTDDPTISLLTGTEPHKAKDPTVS

[2] = NIH-3T3 fibroblast cytotoxicity, dose response, cytotoxicity control, cell-based, fluorescence, Alamar Blue, secondary assay (AID 2327); assay type: functional;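 note: NIH-3T3 mouse fibroblasts cultured with fluconazole at 8 µg/mL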
[3] = C. albicans growth with fluconazole, confirmation, fluorescence, retest (AID 2467); assay type: functional, cell-based
Cytochrome P450 2D6 = Cytochrome P450 2D6 (Homo sapiens, UniProt P10635);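 note: CYP2D6 member of a cytochrome P450 panel assay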
Cytochrome P450 2C9 = Cytochrome P450 2C9 (Homo sapiens, UniProt P11712)
Cytochrome P450 2C19 = Cytochrome P450 2C19 (Homo sapiens, UniProt P33261); assay: Cytochrome panel assay with activity outcomes. Panel member name: p450-cyp2c19 Compounds with AC50 equal or less than 10 uM are considered active; assay type: functional; conditions: read-out: AC50
[4] = microbe, parasite or virus in culture; assay type: functional; conditions: Mycobacterium tuberculosis
[5] = target: FAD-linked sulfhydryl oxidase ALR (Homo sapiens, UniProt P55789); assay: inhibitors of human ALR sulfhydryl oxidase, dose response, biochemical, H2O2 detection, luminescence, cherry-pick (AID 493248)
[6] = HEp-2 cell cytotoxicity, dose response, cytotoxicity control for RSV inhibitor project, HTS (AID 2410); assay type: functional; conditions: human respiratory syncytial virus
H4 = assay: Luminescence Cell-Based Dose Response HTS to Identify Activators of 5'UTR Stem-Loop Driven Prion Protein mRNA Translation in H4 Neuroglioblastoma Cells. [Related pubchem assays: 1829 (Project Summary), 1814 (Primary HTS)]; assay type: functional; conditions: Homo sapiens
[7] = Luminescence Cell-Based Dose Response HTS to Identify Activators of Luciferase Translation or Activity in H4 […] Cells. [Related pubchem assays: 1829 (Project Summary), 1814 (Primary HTS)]; assay type: functional
[8] = Luminescence Cell-Based Dose Confirmation HTS to Identify Activators of 5'UTR Stem-Loop Driven Alpha-Synuclein mRNA Translation in H4 Neuroglioblastoma Cells. [Related pubchem assays: 1829 (Project Summary), 1814 (Primary HTS)]; assay type: functional
[9] = Luminescence Cell-Based Dose Retest to Confirm Inhibitors of Cancer Stem Cells. [Related pubchem assays (depositor defined):AID2717, AID2721]; assay type: functional; conditions: Homo sapiens
[10] = cytotoxicity toward NIH3T3 fibroblasts, dose response, counter-screen, cell-based, ATP luminescence, mouse fibroblasts (AID 2010); assay type: functional;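 note: cells exposed to compound for about 90 hours before reading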
[11] = inhibitors of intracellular T. cruzi replication, confirmation, NIH3T3 host cells, beta-gal luminescence (AID 2044); assay type: functional, cell-based;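 note: intracellular parasites grown in NIH/3T3 mouse fibroblasts as host cells; luminescent beta-galactosidase reporter signal from transgenic T. cruzi replicating inside host cells; inhibitors lower the luminescence signal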
INS1 = assay: beta cell apoptosis inhibitors, cytokine rescue, dose response, luminescence, retest (AID 449756); assay type: functional, cell-based; conditions: Rattus norvegicus;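 note: cell death triggered by IL-1 beta plus TNF-alpha plus IFN-gamma mixture; protective hits raise ATP signal compared with cytokine alone wells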
[12] = target: T2, Rac GTPase-activating protein 1 (Homo sapiens, UniProt Q9H0H5); assay: MgcRacGAP GTPase-activating activity inhibitors, confirmation, biochemical, ADP Hunter fluorescence, primary and confirmatory (AID 624330); assay type: functional
T2 sequence (Q9H0H5 whole entry): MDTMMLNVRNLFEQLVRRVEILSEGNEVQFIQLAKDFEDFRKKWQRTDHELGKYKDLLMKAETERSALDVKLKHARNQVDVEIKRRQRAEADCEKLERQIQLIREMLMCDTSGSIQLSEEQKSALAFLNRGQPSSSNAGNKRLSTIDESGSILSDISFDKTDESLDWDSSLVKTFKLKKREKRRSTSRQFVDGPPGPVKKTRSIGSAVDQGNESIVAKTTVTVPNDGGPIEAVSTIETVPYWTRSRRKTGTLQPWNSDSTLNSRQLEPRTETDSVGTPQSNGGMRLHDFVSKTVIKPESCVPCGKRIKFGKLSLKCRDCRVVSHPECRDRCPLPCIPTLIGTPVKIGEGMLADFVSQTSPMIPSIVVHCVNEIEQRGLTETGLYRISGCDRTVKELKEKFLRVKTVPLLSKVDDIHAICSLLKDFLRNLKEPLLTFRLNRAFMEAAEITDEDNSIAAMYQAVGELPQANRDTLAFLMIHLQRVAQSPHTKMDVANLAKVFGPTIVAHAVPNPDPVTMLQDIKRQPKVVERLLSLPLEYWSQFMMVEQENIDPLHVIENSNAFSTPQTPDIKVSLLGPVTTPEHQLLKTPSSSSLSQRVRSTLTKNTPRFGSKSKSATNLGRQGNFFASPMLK

FAD-linked sulfhydryl oxidase ALR, sequence (P55789 whole entry): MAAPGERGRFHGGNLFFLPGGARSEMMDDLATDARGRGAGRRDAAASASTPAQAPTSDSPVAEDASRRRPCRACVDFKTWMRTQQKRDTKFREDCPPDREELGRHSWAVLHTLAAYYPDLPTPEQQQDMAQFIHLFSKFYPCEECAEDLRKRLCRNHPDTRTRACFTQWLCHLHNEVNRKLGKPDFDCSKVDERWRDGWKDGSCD
Cytochrome P450 2D6, sequence (P10635 whole entry): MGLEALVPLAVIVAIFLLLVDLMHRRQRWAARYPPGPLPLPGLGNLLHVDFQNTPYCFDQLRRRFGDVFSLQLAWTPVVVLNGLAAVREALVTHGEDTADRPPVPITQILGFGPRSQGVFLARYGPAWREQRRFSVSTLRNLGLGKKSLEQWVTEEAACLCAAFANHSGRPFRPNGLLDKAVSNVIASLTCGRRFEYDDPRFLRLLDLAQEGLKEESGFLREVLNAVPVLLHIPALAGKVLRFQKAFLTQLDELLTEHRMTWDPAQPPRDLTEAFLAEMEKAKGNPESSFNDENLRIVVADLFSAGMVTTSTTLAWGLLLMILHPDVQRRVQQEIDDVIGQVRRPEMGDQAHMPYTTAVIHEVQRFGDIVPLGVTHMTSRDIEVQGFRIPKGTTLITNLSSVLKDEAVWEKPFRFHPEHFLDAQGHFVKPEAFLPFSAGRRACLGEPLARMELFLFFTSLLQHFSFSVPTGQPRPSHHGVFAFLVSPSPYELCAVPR
Cytochrome P450 2C19, sequence (P33261 whole entry): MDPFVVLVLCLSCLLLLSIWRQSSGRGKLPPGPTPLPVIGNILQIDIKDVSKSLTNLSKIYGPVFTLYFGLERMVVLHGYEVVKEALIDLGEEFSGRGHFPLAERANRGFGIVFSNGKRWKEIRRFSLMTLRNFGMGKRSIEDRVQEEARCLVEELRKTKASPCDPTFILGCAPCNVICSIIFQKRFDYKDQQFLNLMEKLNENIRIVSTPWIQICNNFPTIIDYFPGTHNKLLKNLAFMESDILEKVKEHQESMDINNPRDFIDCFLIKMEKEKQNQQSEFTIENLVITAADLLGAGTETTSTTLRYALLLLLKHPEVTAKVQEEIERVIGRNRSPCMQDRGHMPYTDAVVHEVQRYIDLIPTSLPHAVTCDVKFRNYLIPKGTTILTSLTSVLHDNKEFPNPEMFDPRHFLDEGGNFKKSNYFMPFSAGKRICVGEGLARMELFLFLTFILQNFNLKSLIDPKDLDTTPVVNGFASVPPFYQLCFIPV
Cytochrome P450 2C9, sequence (P11712 whole entry): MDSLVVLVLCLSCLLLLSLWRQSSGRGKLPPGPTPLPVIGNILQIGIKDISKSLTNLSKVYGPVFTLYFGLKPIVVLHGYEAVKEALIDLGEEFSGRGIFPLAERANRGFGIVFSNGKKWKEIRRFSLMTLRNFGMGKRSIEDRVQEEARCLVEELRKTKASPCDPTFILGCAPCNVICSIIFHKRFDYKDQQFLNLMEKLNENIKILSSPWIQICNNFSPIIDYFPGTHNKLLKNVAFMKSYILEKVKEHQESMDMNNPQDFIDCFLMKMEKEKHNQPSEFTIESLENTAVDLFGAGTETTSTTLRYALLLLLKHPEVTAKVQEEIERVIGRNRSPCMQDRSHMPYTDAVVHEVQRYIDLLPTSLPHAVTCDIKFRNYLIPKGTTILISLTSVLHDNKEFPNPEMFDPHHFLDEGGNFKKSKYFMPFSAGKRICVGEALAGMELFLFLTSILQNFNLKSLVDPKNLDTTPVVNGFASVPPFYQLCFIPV

## CC(C)=NN1C(=O)c2ccccc2NC1(C)C
[1]
  EC50: > 260 µM (inactive)

## C[C@@H]1C(NC(=O)c2ccccc2)CC2CC1C2(C)C (stereo partly drawn)
[1]
  EC50: > 260 µM (inactive)

## O=C1c2ccccc2C(=O)N1CC(O)COc1ccc(Br)cc1 (stereo not drawn)
[1]
  EC50: 64.3 µM (active)

## O=[N+]([O-])c1ccc(C2[C@H]3C(c4ccccc4)=NC4(CCCC4)N23)cc1 (stereo partly drawn)
[2]
  EC50: > 150 µM (inactive)
[3]
  EC50: > 38 µM (not active)

## COc1ccc(-c2cc(-c3c(O)c(OC)c4occc4c3OC)[nH]n2)cc1OC
[2]
  EC50: > 160 µM (inactive)
Cytochrome P450 2D6
  AC50: 25.1 µM (inconclusive)
Cytochrome P450 2C9
  AC50: 39.8 µM (inconclusive)
[3]
  EC50: > 38 µM (not active)

## Cn1c(=O)cc(OCCCC(=O)Nc2cccnc2)c2ccccc21
[2]
  EC50: > 160 µM (inactive)
Cytochrome P450 2C19
  AC50: 20 µM (inconclusive)
Cytochrome P450 2D6
  AC50: 10 µM (inconclusive)
[3]
  EC50: > 38 µM (not active)

## COCCCNC(=O)/C(C#N)=C/c1c(N2CCN(c3cccc(Cl)c3)CC2)nc2c(C)cccn2c1=O
[4]
  CC50: > 40 µM (active)

## COc1ccccc1N1CCN(CCCCOc2cccc3ccccc23)CC1
[4]
  CC50: > 40 µM (active)

## CCC(O)CC(C(=O)NNc1ccccc1)C(=O)NNc1ccccc1 (stereo not drawn)
[2]
  EC50: 20.6 µM (active)
[3]
  EC50: > 38 µM (not active)

## CN(CC(=O)Nc1ccc(F)c(F)c1F)c1cnccn1
[4]
  CC50: 23.5 µM (active)

## O=C(CN(C(=O)c1csnn1)c1ccc(F)c(Cl)c1)NCc1ccc(F)cc1
[1]
  EC50: > 260 µM (inactive)

## CCCc1cn(S(=O)(=O)c2ccc(OC)cc2OC)nc1N
[5]
  AC50: 9.53 µM (active)

## CC(=O)COc1cccc2ccc(/C=C/c3ccc(Br)s3)nc12
[6]
  CC50: 45.4 µM (active)
[1]
  EC50: 60.9 µM (active)

## COC(=O)c1cc(-c2c(C)nn(-c3ccccc3)c2C)[nH]n1
H4
  EC50: 11.2 µM (active)
[7]
  EC50: 11.5 µM (active)
[8]
  EC50: 11.8 µM (active)
[5]
  AC50: 1.2 µM (active)

## O=C(NNc1cccc(Cl)c1)c1cccnc1Cl
[2]
  EC50: 24.8 µM (active)
[3]
  EC50: > 38 µM (not active)
[5]
  AC50: 4.14 µM (active)

## COc1ccc(-c2nc(Cn3c(SCc4ccc(F)cc4)nc4ccncc43)c(C)o2)cc1OC
[1]
  EC50: 34.7 µM (active)

## Cc1cc2c(cc1C)-c1nnnn1C(C)(C)C2
[1]
  EC50: > 260 µM (inactive)

## O=C(CN1C(=O)C2CC=CCC2C1=O)Nc1nc2ccc(F)cc2s1 (stereo not drawn)
[5]
  AC50: 0.494 µM (active)

## CC(=O)n1c2c(c3ccccc31)OC(N)=C(C#N)C2c1cccc(Cl)c1Cl (stereo not drawn)
[1]
  EC50: 42.4 µM (active)
[9]
  AC50: 1.57 µM (active)

## COc1ccccc1-c1cc(C(=O)NC2CCN(C)CC2)c2ccc(Cl)c(C)c2n1
[10]
  EC50: > 60 µM (not active)
[11]
  EC50: 1.4 µM (active)
[4]
  CC50: 7.01 µM (active)

## O=C1C(=CNCCN2CCNCC2)C(=O)N(C2CCCCC2)C(=O)N1C1CCCCC1
[4]
  CC50: 33.5 µM (active)

## COCCNC(=O)NC12CC3CC(CC(C3)C1)C2
[2]
  EC50: > 160 µM (inconclusive)
[3]
  EC50: > 38 µM (not active)

## O=C(NCCc1ccccc1)[C@@H]1CC=C[C@@H]2CCN(Cc3ccc(Cl)c(Cl)c3)C(=O)[C@@H]21
INS1
  AC50: 6.35 µM (active)
[4]
  CC50: 34.4 µM (active)

## Cc1ccc(C)c(CN2C(=O)COc3ccccc32)c1
[1]
  EC50: > 260 µM (inactive)

## CCc1ccccc1N=C(S)NNC(=O)c1ccccc1Cl
[2]
  EC50: > 150 µM (inactive)
[3]
  EC50: 1.93 µM (active)

## CCCCNC(=O)/C(=C\c1ccc([N+](=O)[O-])o1)NC(=O)c1ccccc1
[2]
  EC50: > 150 µM (inactive)
[10]
  EC50: > 60 µM (inconclusive)
[11]
  EC50: 0.863 µM (active)
[3]
  EC50: 0.265 µM (active)

## Cc1nc(SCc2cccc(F)c2)nc(O)c1C#N
[5]
  AC50: 9.69 µM (active)

## O=S(=O)(Nc1ccc(N2CCCCC2)cc1)c1ccc(F)c(F)c1
[5]
  AC50: 4.17 µM (active)

## S=C(NC1CCCCC1)NC1CC2C=CC1C2 (stereo not drawn)
[1]
  EC50: > 260 µM (inactive)

## COc1ccc(C2CC(=O)c3cnc(N4CCc5ccccc54)nc3C2)cc1OC (stereo not drawn)
[1]
  EC50: > 260 µM (inactive)

## O=C(Cn1cccn1)N1CCCC(Nc2ccc(F)c(F)c2)C1 (stereo not drawn)
[5]
  AC50: 1.92 µM (active)

## CCN(CCNC(=O)C1CCN(S(=O)(=O)CC)CC1)c1ccccc1
[5]
  AC50: 0.013 µM (active)

## Cc1ccn(Cc2nnc(S)n2Cc2ccccc2)n1
[5]
  AC50: 8.59 µM (active)

## Oc1ccc(/C(Cc2ccccn2)=N\Nc2ccccc2)c(O)c1
[5]
  AC50: 0.332 µM (active)

## O=C1CSC(=S)N1/N=C/c1cccc(C(F)(F)F)c1
[1]
  EC50: > 260 µM (inactive)

## C/C(=N/NC(=O)c1ccccc1O)c1ccc(N2C(=O)C3CCCCC3C2=O)cc1 (stereo not drawn)
[2]
  EC50: > 160 µM (inactive)
[3]
  EC50: > 38 µM (not active)

## COc1cc(/C=N/NC(=O)CN(Cc2ccco2)S(=O)(=O)c2ccccc2)ccc1O
[12]
  IC50: 40 µM (active)
[5]
  AC50: 1.13 µM (active)

## C=Cc1ncc(OC)c2c1[nH]c1ccccc12
[1]
  EC50: 9.2 µM (active)
